# Test results reported in US20240425517A1, “NOVEL COMPOUND FOR DEGRADATION OF TARGET PROTEIN OR POLYPEPTIDE BY POLYUBIQUITINATION” (PRAZER THERAPEUTICS INC., priority 2021, published 2024).
# Structures can show the parent of a compound that is named as a salt.
# Biological target: T1, BRD4 proteins (Homo sapiens, UniProt O60885)
# T1 construct: endogenous in cells; host or cells: MM.1S
# Test: Degradation of BRD4 protein in MM.1S cell lines (Western blot densitometry)
# Type: cell-based
# Settings: MM.1S cells, 10 μM, 24 hours
# In short: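 MM.1S cells in RPMI-1640 with 10% FBS were treated with each degrader at 10 μM for 24 h. RIPA lysates were analysed by SDS-PAGE/Western blot with β-actin as reference, and BRD4 band densitometry was scored as reduction <40% (+), 40-<70% (++) or ≥70% (+++).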
row,SMILES,BRD4 degrading capacity (%)
1,"Cc1sc2c(c1C)C(c1ccc(Cl)cc1)=N[C@@H](CC(=O)NCCCCCCCNC(=O)c1ccc(-c3ccc(C#CCN)cc3)o1)c1nnc(C)n1-2.Cl [5-111′, (S)-5-(4-(3-aminoprop-1-yn-1-yl)phenyl)-N-(7-(2-(4-(4-chlorophenyl)-2,3,9-trimethyl-6H-thieno[3,2-f][1,2,4]triazolo[4,3-a][1,4]diazepin-6-yl)acetamido)heptyl)furan-2-carboxamide hydrochloride]",++ (the degrading capacity was reduced by 40% to 70% (exclusive of 70))
2,"COC(=O)c1ccc(NC(=O)CCCOC(=O)C[C@@H]2N=C(c3ccc(Cl)cc3)c3c(sc(C)c3C)-n3c(C)nnc32)cc1C#CCN [5-115′, methyl (S)-2-(3-aminoprop-1-yn-1-yl)-4-(4-(2-(4-(4-chlorophenyl)-2,3,9-trimethyl-6H-thieno[3,2-f][1,2,4]triazolo[4,3-a][1,4]diazepin-6-yl)acetoxy)butanamido)benzoate hydrochloride]",+++ (the degrading capacity was reduced by 70% or more)
3,"COC(=O)c1ccc(C#CCNC(=O)C[C@@H]2N=C(c3ccc(Cl)cc3)c3c(sc(C)c3C)-n3c(C)nnc32)cc1C#CCN.Cl [5-116′, methyl (S)-2-(3-aminoprop-1-yn-1-yl)-4-(3-(2-(4-(4-chlorophenyl)-2,3,9-trimethyl-6H-thieno[3,2-f][1,2,4]triazolo[4,3-a][1,4]diazepin-6-yl)acetamido)prop-1-yn-1-yl)benzoate hydrochloride]",+++ (the degrading capacity was reduced by 70% or more)
4,"Cc1sc2c(c1C)C(c1ccc(Cl)cc1)=N[C@@H](CC(=O)N1CCC(CNc3ccc(C(=O)O)c(C#CCN)c3)CC1)c1nnc(C)n1-2 [5-139′, (S)-2-(3-aminoprop-1-yn-1-yl)-4-(((1-(2-(4-(4-chlorophenyl)-2,3,9-trimethyl-6H-thieno[3,2-f][1,2,4]triazolo[4,3-a][1,4]diazepin-6-yl)acetyl)piperidin-4-yl)methyl)amino)benzoic acid trifluoroacetic acid]",+ (the degrading capacity of each BRD4 degrader was reduced by less than 40%)
5,"COC(=O)c1ccc(C(=O)N2CCN(C(=O)C[C@@H]3N=C(c4ccc(Cl)cc4)c4c(sc(C)c4C)-n4c(C)nnc43)CC2)cc1C#CCN.Cl [5-140′, methyl (S)-2-(3-aminoprop-1-yn-1-yl)-4-(4-(2-(4-(4-chlorophenyl)-2,3,9-trimethyl-6H-thieno[3,2-f][1,2,4]triazolo[4,3-a][1,4]diazepin-6-yl)acetyl)piperazine-1-carbonyl)benzoate hydrochloride]",+++ (the degrading capacity was reduced by 70% or more)
6,"COC(=O)c1ccc(NC(=O)CCCNC(=O)C[C@@H]2N=C(c3ccc(Cl)cc3)c3c(sc(C)c3C)-n3c(C)nnc32)cc1C#CCNC(C)=O [5-148′, methyl (S)-2-(3-acetamidoprop-1-yn-1-yl)-4-(4-(2-(4-(4-chlorophenyl)-2,3,9-trimethyl-6H-thieno[3,2-f][1,2,4]triazolo[4,3-a][1,4]diazepin-6-yl)acetamido)butanamido)benzoate]",+ (the degrading capacity of each BRD4 degrader was reduced by less than 40%)
7,"COC(=O)c1ccc(NC(=O)CCCN(C)C(=O)C[C@@H]2N=C(c3ccc(Cl)cc3)c3c(sc(C)c3C)-n3c(C)nnc32)cc1C#CCN.Cl [5-149′, methyl (S)-2-(3-aminoprop-1-yn-1-yl)-4-(4-(2-(4-(4-chlorophenyl)-2,3,9-trimethyl-6H-thieno[3,2-f][1,2,4]triazolo[4,3-a][1,4]diazepin-6-yl)-N-methylacetamido)butanamido)benzoate hydrochloride]",+++ (the degrading capacity was reduced by 70% or more)
8,"COC(=O)c1ccc(N(C)C(=O)CCCNC(=O)C[C@@H]2N=C(c3ccc(Cl)cc3)c3c(sc(C)c3C)-n3c(C)nnc32)cc1C#CCN.Cl [5-150′, methyl (S)-2-(3-aminoprop-1-yn-1-yl)-4-(4-(2-(4-(4-chlorophenyl)-2,3,9-trimethyl-6H-thieno[3,2-f][1,2,4]triazolo[4,3-a][1,4]diazepin-6-yl)acetamido)-N-methylbutanamido)benzoate hydrochloride]",+++ (the degrading capacity was reduced by 70% or more)
9,"COC(=O)c1ccc(N(C)C(=O)C2CCN(C(=O)C[C@@H]3N=C(c4ccc(Cl)cc4)c4c(sc(C)c4C)-n4c(C)nnc43)CC2)cc1C#CCN [5-152′, methyl (S)-2-(3-aminoprop-1-yn-1-yl)-4-(1-(2-(4-(4-chlorophenyl)-2,3,9-trimethyl-6H-thieno[3,2-f][1,2,4]triazolo[4,3-a][1,4]diazepin-6-yl)acetyl)-N-methylpiperidine-4-carboxamido)benzoate trifluoroacetic acid]",+++ (the degrading capacity was reduced by 70% or more)
10,"COC(=O)c1ccc(C(=O)N(C)C2CCN(C(=O)C[C@@H]3N=C(c4ccc(Cl)cc4)c4c(sc(C)c4C)-n4c(C)nnc43)CC2)cc1C#CCN [5-153′, methyl (S)-2-(3-aminoprop-1-yn-1-yl)-4-((1-(2-(4-(4-chlorophenyl)-2,3,9-trimethyl-6H-thieno[3,2-f][1,2,4]triazolo[4,3-a][1,4]diazepin-6-yl)acetyl)piperidin-4-yl)(methyl)carbamoyl)benzoate trifluoroacetic acid]",+++ (the degrading capacity was reduced by 70% or more)
11,"COC(=O)c1ccc(NC(=O)C2CCN(C(=O)C[C@@H]3N=C(c4ccc(Cl)cc4)c4c(sc(C)c4C)-n4c(C)nnc43)CC2)cc1C#CCNS(N)(=O)=O [5-154′, methyl (S)-4-(1-(2-(4-(4-chlorophenyl)-2,3,9-trimethyl-6H-thieno[3,2-f][1,2,4]triazolo[4,3-a][1,4]diazepin-6-yl)acetyl)piperidine-4-carboxamido)-2-(3-(sulfamoylamino)prop-1-yn-1-yl)benzoate trifluoroacetic acid]",+++ (the degrading capacity was reduced by 70% or more)
12,"COC(=O)c1ccc(NC(=O)C2CCN(C(=O)C[C@@H]3N=C(c4ccc(Cl)cc4)c4c(sc(C)c4C)-n4c(C)nnc43)CC2)cc1C#CC1(N)CC1 [5-155′, methyl (S)-2-((1-aminocyclopropyl)ethynyl)-4-(1-(2-(4-(4-chlorophenyl)-2,3,9-trimethyl-6H-thieno[3,2-f][1,2,4]triazolo[4,3-a][1,4]diazepin-6-yl)acetyl)piperidine-4-carboxamido)benzoate trifluoroacetic acid]",++ (the degrading capacity was reduced by 40% to 70% (exclusive of 70))
13,"COC(=O)c1ccc(NC(=O)C2CCN(C(=O)C[C@@H]3N=C(c4ccc(Cl)cc4)c4c(sc(C)c4C)-n4c(C)nnc43)CC2)cc1C#CCNC(=O)OC(C)OC(=O)C(C)C (stereo partly drawn) [5-157′, methyl 4-(1-(2-((S)-4-(4-chlorophenyl)-2,3,9-trimethyl-6H-thieno[3,2-f][1,2,4]triazolo[4,3-a][1,4]diazepin-6-yl)acetyl)piperidine-4-carboxamido)-2-(3-(((1-(isobutyryloxy)ethoxy)carbonyl)amino)prop-1-yn-1-yl)benzoate]",+++ (the degrading capacity was reduced by 70% or more)
14,"COC(=O)c1ccc(NC(=O)C2CCN(C(=O)C[C@@H]3N=C(c4ccc(Cl)cc4)c4c(sc(C)c4C)-n4c(C)nnc43)CC2)cc1C#CCOS(N)(=O)=O [5-158′, methyl (S)-4-(1-(2-(4-(4-chlorophenyl)-2,3,9-trimethyl-6H-thieno[3,2-f][1,2,4]triazolo[4,3-a][1,4]diazepin-6-yl)acetyl)piperidine-4-carboxamido)-2-(3-(sulfamoyloxy)prop-1-yn-1-yl)benzoate trifluoroacetic acid]",+++ (the degrading capacity was reduced by 70% or more)
15,"COC(=O)c1ccc(N2CC3(CN(C(=O)C[C@@H]4N=C(c5ccc(Cl)cc5)c5c(sc(C)c5C)-n5c(C)nnc54)C3)C2)cc1C#CCNC(=O)OC(C)OC(=O)C(C)C (stereo partly drawn) [5-162′, methyl 4-(6-(2-((S)-4-(4-chlorophenyl)-2,3,9-trimethyl-6H-thieno[3,2-f][1,2,4]triazolo[4,3-a][1,4]diazepin-6-yl)acetyl)-2,6-diazaspiro[3.3]heptan-2-yl)-2-(3-(((1-(isobutyryloxy)ethoxy)carbonyl)amino)prop-1-yn-1-yl)benzoate]",+++ (the degrading capacity was reduced by 70% or more)
16,"COC(=O)c1ccc(N2CCN(CCCNC(=O)C[C@@H]3N=C(c4ccc(Cl)cc4)c4c(sc(C)c4C)-n4c(C)nnc43)CC2)cc1C#CCN.Cl [5-164′, methyl (S)-2-(3-aminoprop-1-yn-1-yl)-4-(4-(3-(2-(4-(4-chlorophenyl)-2,3,9-trimethyl-6H-thieno[3,2-f][1,2,4]triazolo[4,3-a][1,4]diazepin-6-yl)acetamido)propyl)piperazin-1-yl)benzoate hydrochloride]",+++ (the degrading capacity was reduced by 70% or more)
17,"COC(=O)c1cc(N2CCN(CCCNC(=O)C[C@@H]3N=C(c4ccc(Cl)cc4)c4c(sc(C)c4C)-n4c(C)nnc43)CC2)ccc1C#CCN.Cl [5-165′, methyl (S)-2-(3-aminoprop-1-yn-1-yl)-5-(4-(3-(2-(4-(4-chlorophenyl)-2,3,9-trimethyl-6H-thieno[3,2-f][1,2,4]triazolo[4,3-a][1,4]diazepin-6-yl)acetamido)propyl)piperazin-1-yl)benzoate hydrochloride]",+++ (the degrading capacity was reduced by 70% or more)
18,"COC(=O)c1ccc(N2CC3(CCN(C(=O)C[C@@H]4N=C(c5ccc(Cl)cc5)c5c(sc(C)c5C)-n5c(C)nnc54)CC3)C2)cc1C#CCN.Cl [5-168′, methyl (S)-2-(3-aminoprop-1-yn-1-yl)-4-(7-(2-(4-(4-chlorophenyl)-2,3,9-trimethyl-6H-thieno[3,2-f][1,2,4]triazolo[4,3-a][1,4]diazepin-6-yl)acetyl)-2,7-diazaspiro[3.5]nonan-2-yl)benzoate hydrochloride]",+++ (the degrading capacity was reduced by 70% or more)
